The numbers were not newly measured in patent publication US6545056B1, “Aryl nitrone therapeutics and methods for treating inflammatory bowel disease” (Centaur Pharmaceuticals, Inc., priority 1999, dated 2003), which cites them from elsewhere.

For this data set, the system named is senescence-accelerated mice.

For `CC(C)(C)/[N+]([O-])=C/c1ccccc1` [PBN, α-phenyl-t-butyl nitone], the “increase of the life span” value is “one third”.
